Data set [1] concerns VSV. Kind of data set: microbe, parasite or virus in culture. Format: cell-based, vesicular stomatitis virus strain Indiana. The note with it: for minimal effective concentration: read-out: Lowest concentration causing ≥3.0 log10 reduction in virus titer.
For data set [2], the system named is HSV-1. Kind of data set: microbe, parasite or virus in culture. The format is cell-based, herpes simplex virus type 1 strain MacIntyre. The following applies: Human alphaherpesvirus 1, 0.5 h; 0.5 mg/ml, 37° C., 30 min; read-out: Reduction of virus titer, HSV-1.
Data set [3] deals with Red Blood Cells. Kind of data set: Stability of red blood cells in whole human blood to added monoglyceride. The format is cell-based. The note with it: 3 mg/ml. The text has this:
Effect of Added Monoglyceride on RBCs in Human Blood.

Data set [4] deals with Group B streptococcus. Kind of data set: Inactivation of bacteria by monoglycerides, Group B streptococcus. The note with it: 2 mg/ml, read-out: Reduction of bacterial concentration, Group B streptococcus. Format: cell-based.
For data set [5], the system named is VSV. The data set is described as follows: microbe, parasite or virus in culture. Format: cell-based, vesicular stomatitis virus. The note with it: Vesicular stomatitis virus.
The subject of data set [6] is VSV. The data set is described as follows: microbe, parasite or virus in culture. The format is cell-based, vesicular stomatitis virus. The note with it: for Reduction in VSV titer: 10 mM sodium taurocholate, human plasma; for log reduction at 4000 µM / log reduction at 7500 µM / log reduction at 15000 µM: Vesicular stomatitis virus, read-out: Reduction in VSV titer.
In data set [7] the test system is Total White Blood Cells. The data set is described as follows: Stability of white blood cells in whole human blood to added lipid. The format is cell-based. Further details: unit not given here. The note with it: 15 mM, control 6.4. The text has this: Further testing has shown the effect of monoglyceride esters and ether on the total white blood cell concentration in whole human blood.

Data set [8] in a line: Solubility. Format: physicochemical. The following applies: vs 1-monodecanoyl-rac-glycerol.
Setting [9] is: Vesicular stomatitis virus, 0.5 h.
Setting [10] is: Vesicular stomatitis virus, 0.5 h, read-out: Reduction of virus titer, VSV.
The mark [11] stands for this setting: read-out: Reduction in VSV Titer, 7.5 mM, 0 mM sodium taurocholate, human serum.
Where [12] appears, read: read-out: Reduction in VSV Titer, 7.5 mM, 2 mM sodium taurocholate, human serum.
Setting [13] is: read-out: Reduction in VSV Titer, 7.5 mM, 4 mM sodium taurocholate, human serum.
The mark [14] stands for this setting: read-out: Reduction in VSV Titer, 7.5 mM, 6 mM sodium taurocholate, human serum.
Where [15] appears, read: read-out: Reduction in VSV Titer, 7.5 mM, 8 mM sodium taurocholate, human serum.
Setting [16] is: read-out: Reduction in VSV Titer, 7.5 mM, 10 mM sodium taurocholate, human serum.
Where [17] appears, read: read-out: Reduction in VSV Titer, 7.5 mM, 12 mM sodium taurocholate, human serum.

Molecules are shown by their SMILES. Several values for one entry are separate records, joined by “and”; a condition that tells them apart may be missing. Identical values can stand only once. Like-named read-outs stand apart in the source and are kept apart here. A value given as a limit tells only on which side of the number the result lay.

With `CCCCCCCCCC(=O)OCC(O)CO` (racemic) [Monocaprin (10:0), 1-Monodecanoyl-rac-glycerol], the minimal effective concentration in data set [1] (setting [9]) is 500 µg/mL and 2000 µM. The log reduction at 500 µg/mL was at least 4 in data set [1] (setting [10]) and at least 3.7 in data set [2]. Besides, the “active concentration relative to corresponding free acids” value in data set [1] (monoglyceride vs free acid) is given as “ten times lower”. The “lysis of RBCs in whole blood” value in data set [3] was “does not lyse RBCs in whole blood”. In addition, the log reduction at 2000 µg/mL in data set [4] was 4.5. The log reduction at 7500 µM in data set [5] (setting [11]) is 1; in data set [5] (setting [12]) it was at least 5; in data set [5] (setting [13]), at least 5; in data set [5] (setting [14]), at least 5; in data set [5] (setting [15]), at least 5; in data set [5] (setting [16]), at least 5. Besides, the log reduction at 7500 µM in data set [5] (setting [17]) was at least 5; in data set [6], 1. Further, the “Reduction in VSV titer” value was 1.0 log10 in data set [6] (4 mM), at least 4.0 log10 in data set [6] (7.5 mM) and at least 4.0 log10 in data set [6] (15 mM). In data set [6], the log reduction at 4000 µM is 0. Further, in data set [6], the log reduction at 15000 µM was at least 4. Besides, the “Total White Blood Cells” value in data set [7] was found to be 0.7.
For the compound `CCCCCCCC(=O)OCC(O)CO` (racemic) [Monocaprylin (8:0), 1-Monocapryloyl-rac-glycerol], in data set [1] (setting [9]), the minimal effective concentration is 2000 µg/mL and 9000 µM. For the same compound, in data set [1] (setting [10]), the log reduction at 2000 µg/mL was at least 4. Also, the log reduction at 7500 µM was at least 1 in data set [5] (setting [11]); at least 3 in data set [5] (setting [12]); 4 in data set [5] (setting [13]); at least 5 in data set [5] (setting [14]); at least 5 in data set [5] (setting [15]); at least 5 in data set [5] (setting [16]). In addition, the log reduction at 7500 µM was at least 5 in data set [5] (setting [17]) and 1 in data set [6]. For the same compound, the “Reduction in VSV titer” value was 2.0 log10 in data set [6] (4 mM), at least 4.0 log10 in data set [6] (7.5 mM) and at least 4.0 log10 in data set [6] (15 mM). The log reduction at 4000 µM in data set [6] came out at 0. Further, in data set [6], the log reduction at 15000 µM stood at 2. The “Total White Blood Cells” value in data set [7] is 2.4. Also, in data set [8], the solubility in words entry was “more soluble”.

The values are drawn from patent publication US5434182A (priority 1993, dated 1995).
